Assays:
[1] = target: Calcium/calmodulin-dependent protein kinase kinase 2 (Homo sapiens) (UniProt Q96RR4); conditions: Compound concentration 1000.0 nM
[2] = target: Focal adhesion kinase 1 (Homo sapiens) (UniProt Q05397); conditions: Compound concentration 1000.0 nM
[3] = target: Serine/threonine-protein kinase B-raf (Homo sapiens) (UniProt P15056); conditions: Compound concentration 1000.0 nM
[4] = target: Ribosomal protein S6 kinase alpha-2 (Homo sapiens) (UniProt Q15349); conditions: Compound concentration 1000.0 nM
[5] = target: Tyrosine-protein kinase receptor UFO (Homo sapiens) (UniProt P30530); conditions: Compound concentration 1000.0 nM
[6] = target: Activin receptor type-2B (Homo sapiens) (UniProt Q13705); conditions: Compound concentration 1000.0 nM
[7] = target: Serine/threonine-protein kinase Nek9 (Homo sapiens) (UniProt Q8TD19); conditions: Compound concentration 1000.0 nM
[8] = target: Mitogen-activated protein kinase 15 (Homo sapiens) (UniProt Q8TD08); conditions: Compound concentration 1000.0 nM
[9] = target: Serine/threonine-protein kinase 17B (Homo sapiens) (UniProt O94768); conditions: Compound concentration 1000.0 nM
[10] = target: Mitogen-activated protein kinase kinase kinase 13 (Homo sapiens) (UniProt O43283); conditions: Compound concentration 1000.0 nM
[11] = target: Alpha-2A adrenergic receptor (Homo sapiens) (UniProt P08913); conditions: Compound concentration 10.0 uM
[12] = target: Dual specificity mitogen-activated protein kinase kinase 5 (Homo sapiens) (UniProt Q13163); conditions: Compound concentration 1000.0 nM
[13] = system: Epidermal growth factor receptor (Homo sapiens), P00533 [L858R,T790M]; conditions: Compound concentration 1000.0 nM
[14] = system: Phosphatidylinositol 4,5-bisphosphate 3-kinase catalytic subunit alpha isoform (Homo sapiens), P42336 [M1043I]; conditions: Compound concentration 1000.0 nM
[15] = target: Cyclin-dependent kinase 11A (Homo sapiens) (UniProt Q9UQ88); conditions: Compound concentration 1000.0 nM
[16] = target: Kappa-type opioid receptor (Homo sapiens) (UniProt P41145); conditions: Compound concentration 10.0 uM
[17] = target: Death-associated protein kinase 2 (Homo sapiens) (UniProt Q9UIK4); conditions: Compound concentration 1000.0 nM
[18] = target: Serine/threonine-protein kinase SIK3 (Homo sapiens) (UniProt Q9Y2K2); conditions: Compound concentration 1000.0 nM
[19] = target: Interleukin-1 receptor-associated kinase 1 (Homo sapiens) (UniProt P51617); conditions: Compound concentration 1000.0 nM
[20] = target: 5'-AMP-activated protein kinase catalytic subunit alpha-1 (Homo sapiens) (UniProt Q13131); conditions: Compound concentration 1000.0 nM
[21] = system: Epidermal growth factor receptor (Homo sapiens), P00533 [UNDEFINED MUTATION]; conditions: Compound concentration 1000.0 nM
[22] = target: Rhodopsin kinase GRK1 (Homo sapiens) (UniProt Q15835); conditions: Compound concentration 1000.0 nM
[23] = target: Serine/threonine-protein kinase 38-like (Homo sapiens) (UniProt Q9Y2H1); conditions: Compound concentration 1000.0 nM
[24] = target: Serine/threonine-protein kinase haspin (Homo sapiens) (UniProt Q8TF76); conditions: Compound concentration 1000.0 nM
[25] = target: Beta-3 adrenergic receptor (Homo sapiens) (UniProt P13945); conditions: Compound concentration 10.0 uM
[26] = target: Dual specificity mitogen-activated protein kinase kinase 6 (Homo sapiens) (UniProt P52564); conditions: Compound concentration 1000.0 nM
[27] = system: Receptor-type tyrosine-protein kinase FLT3 (Homo sapiens), P36888 [K663Q]; conditions: Compound concentration 1000.0 nM
[28] = target: Receptor-interacting serine/threonine-protein kinase 2 (Homo sapiens) (UniProt O43353); conditions: Compound concentration 1000.0 nM
[29] = target: Cyclin-dependent kinase 2 homolog (Plasmodium falciparum (isolate 3D7)) (UniProt P61075); conditions: Compound concentration 1000.0 nM
[30] = target: RAC-gamma serine/threonine-protein kinase (Homo sapiens) (UniProt Q9Y243); conditions: Compound concentration 1000.0 nM
[31] = target: Phosphatidylinositol 4-phosphate 5-kinase type-1 alpha (Homo sapiens) (UniProt Q99755); conditions: Compound concentration 1000.0 nM
[32] = system: Receptor-type tyrosine-protein kinase FLT3 (Homo sapiens), P36888 [D835Y]; conditions: Compound concentration 1000.0 nM
[33] = target: Proto-oncogene tyrosine-protein kinase receptor Ret (Homo sapiens) (UniProt P07949); conditions: Compound concentration 1000.0 nM
[34] = target: cAMP-dependent protein kinase catalytic subunit PRKX (Homo sapiens) (UniProt P51817); conditions: Compound concentration 1000.0 nM
[35] = target: Cyclin-dependent kinase-like 3 (Homo sapiens) (UniProt Q8IVW4); conditions: Compound concentration 1000.0 nM
[36] = target: LIM domain kinase 2 (Homo sapiens) (UniProt P53671); conditions: Compound concentration 1000.0 nM
[37] = target: Serine/threonine-protein kinase NLK (Homo sapiens) (UniProt Q9UBE8); conditions: Compound concentration 1000.0 nM
[38] = target: Cyclin-dependent kinase 16 (Homo sapiens) (UniProt Q00536); conditions: Compound concentration 1000.0 nM
[39] = target: Histamine H1 receptor (Homo sapiens) (UniProt P35367); conditions: Compound concentration 10.0 uM
[40] = target: Death-associated protein kinase 3 (Homo sapiens) (UniProt O43293); conditions: Compound concentration 1000.0 nM
[41] = target: Cyclin-dependent kinase 11B (Homo sapiens) (UniProt P21127); conditions: Compound concentration 1000.0 nM
[42] = target: Tyrosine-protein kinase Fes/Fps (Homo sapiens) (UniProt P07332); conditions: Compound concentration 1000.0 nM
[43] = target: Serine/threonine-protein kinase Nek7 (Homo sapiens) (UniProt Q8TDX7); conditions: Compound concentration 1000.0 nM
[44] = target: Insulin receptor (Homo sapiens) (UniProt P06213); conditions: Compound concentration 1000.0 nM
[45] = target: Serine/threonine-protein kinase WNK4 (Homo sapiens) (UniProt Q96J92); conditions: Compound concentration 1000.0 nM

Sequence of Rhodopsin kinase GRK1 (Homo sapiens) (Q15835 whole entry): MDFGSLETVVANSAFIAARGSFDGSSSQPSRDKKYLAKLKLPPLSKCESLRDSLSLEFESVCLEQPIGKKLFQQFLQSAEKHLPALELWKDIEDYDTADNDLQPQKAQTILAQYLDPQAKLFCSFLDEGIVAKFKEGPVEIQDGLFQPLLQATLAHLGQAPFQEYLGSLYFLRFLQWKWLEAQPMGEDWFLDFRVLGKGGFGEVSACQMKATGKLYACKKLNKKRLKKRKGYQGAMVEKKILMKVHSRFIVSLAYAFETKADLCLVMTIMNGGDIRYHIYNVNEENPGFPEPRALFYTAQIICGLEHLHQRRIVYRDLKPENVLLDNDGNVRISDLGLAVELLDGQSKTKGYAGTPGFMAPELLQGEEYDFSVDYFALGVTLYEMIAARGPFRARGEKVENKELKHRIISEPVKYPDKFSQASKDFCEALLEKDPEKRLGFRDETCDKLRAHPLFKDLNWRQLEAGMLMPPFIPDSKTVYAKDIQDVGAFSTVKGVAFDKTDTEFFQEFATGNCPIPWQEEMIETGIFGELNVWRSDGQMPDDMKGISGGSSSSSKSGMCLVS
Sequence of Serine/threonine-protein kinase haspin (Homo sapiens) (Q8TF76 whole entry): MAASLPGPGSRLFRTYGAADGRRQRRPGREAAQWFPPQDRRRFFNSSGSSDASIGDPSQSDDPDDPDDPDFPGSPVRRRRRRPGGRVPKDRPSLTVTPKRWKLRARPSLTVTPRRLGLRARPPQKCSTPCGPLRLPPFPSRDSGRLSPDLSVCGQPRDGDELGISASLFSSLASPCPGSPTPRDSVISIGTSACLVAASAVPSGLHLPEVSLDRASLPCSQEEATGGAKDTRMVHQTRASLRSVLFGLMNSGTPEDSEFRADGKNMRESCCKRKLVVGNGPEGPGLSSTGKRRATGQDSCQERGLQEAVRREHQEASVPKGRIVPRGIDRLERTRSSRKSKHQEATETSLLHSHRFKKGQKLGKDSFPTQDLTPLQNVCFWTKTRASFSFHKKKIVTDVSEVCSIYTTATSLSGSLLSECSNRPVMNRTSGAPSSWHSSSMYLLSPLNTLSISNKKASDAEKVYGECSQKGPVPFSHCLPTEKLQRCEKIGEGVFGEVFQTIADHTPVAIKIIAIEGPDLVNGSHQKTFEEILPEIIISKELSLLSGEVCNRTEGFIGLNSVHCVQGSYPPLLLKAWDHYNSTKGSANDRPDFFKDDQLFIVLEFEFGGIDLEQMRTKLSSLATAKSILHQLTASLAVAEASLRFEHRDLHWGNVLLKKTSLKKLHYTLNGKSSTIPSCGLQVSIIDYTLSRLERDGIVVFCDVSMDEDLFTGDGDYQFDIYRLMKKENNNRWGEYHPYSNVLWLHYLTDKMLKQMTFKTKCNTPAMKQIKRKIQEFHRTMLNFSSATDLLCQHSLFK
Sequence of Serine/threonine-protein kinase NLK (Homo sapiens) (Q9UBE8 whole entry): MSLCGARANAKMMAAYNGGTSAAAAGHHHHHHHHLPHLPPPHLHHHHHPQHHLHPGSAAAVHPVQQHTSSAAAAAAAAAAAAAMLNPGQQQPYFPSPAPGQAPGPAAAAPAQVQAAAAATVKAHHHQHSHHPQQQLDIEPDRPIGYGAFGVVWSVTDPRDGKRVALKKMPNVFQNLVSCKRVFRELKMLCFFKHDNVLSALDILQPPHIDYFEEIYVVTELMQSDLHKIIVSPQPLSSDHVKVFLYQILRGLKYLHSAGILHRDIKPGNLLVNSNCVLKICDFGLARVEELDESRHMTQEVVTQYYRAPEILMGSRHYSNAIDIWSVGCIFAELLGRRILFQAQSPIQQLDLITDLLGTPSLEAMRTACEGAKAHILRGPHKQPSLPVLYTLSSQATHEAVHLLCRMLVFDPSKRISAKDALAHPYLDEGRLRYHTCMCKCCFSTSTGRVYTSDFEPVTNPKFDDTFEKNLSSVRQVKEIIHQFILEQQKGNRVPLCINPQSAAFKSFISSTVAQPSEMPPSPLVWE
Sequence of Focal adhesion kinase 1 (Homo sapiens) (Q05397 2-1052 limits assumed): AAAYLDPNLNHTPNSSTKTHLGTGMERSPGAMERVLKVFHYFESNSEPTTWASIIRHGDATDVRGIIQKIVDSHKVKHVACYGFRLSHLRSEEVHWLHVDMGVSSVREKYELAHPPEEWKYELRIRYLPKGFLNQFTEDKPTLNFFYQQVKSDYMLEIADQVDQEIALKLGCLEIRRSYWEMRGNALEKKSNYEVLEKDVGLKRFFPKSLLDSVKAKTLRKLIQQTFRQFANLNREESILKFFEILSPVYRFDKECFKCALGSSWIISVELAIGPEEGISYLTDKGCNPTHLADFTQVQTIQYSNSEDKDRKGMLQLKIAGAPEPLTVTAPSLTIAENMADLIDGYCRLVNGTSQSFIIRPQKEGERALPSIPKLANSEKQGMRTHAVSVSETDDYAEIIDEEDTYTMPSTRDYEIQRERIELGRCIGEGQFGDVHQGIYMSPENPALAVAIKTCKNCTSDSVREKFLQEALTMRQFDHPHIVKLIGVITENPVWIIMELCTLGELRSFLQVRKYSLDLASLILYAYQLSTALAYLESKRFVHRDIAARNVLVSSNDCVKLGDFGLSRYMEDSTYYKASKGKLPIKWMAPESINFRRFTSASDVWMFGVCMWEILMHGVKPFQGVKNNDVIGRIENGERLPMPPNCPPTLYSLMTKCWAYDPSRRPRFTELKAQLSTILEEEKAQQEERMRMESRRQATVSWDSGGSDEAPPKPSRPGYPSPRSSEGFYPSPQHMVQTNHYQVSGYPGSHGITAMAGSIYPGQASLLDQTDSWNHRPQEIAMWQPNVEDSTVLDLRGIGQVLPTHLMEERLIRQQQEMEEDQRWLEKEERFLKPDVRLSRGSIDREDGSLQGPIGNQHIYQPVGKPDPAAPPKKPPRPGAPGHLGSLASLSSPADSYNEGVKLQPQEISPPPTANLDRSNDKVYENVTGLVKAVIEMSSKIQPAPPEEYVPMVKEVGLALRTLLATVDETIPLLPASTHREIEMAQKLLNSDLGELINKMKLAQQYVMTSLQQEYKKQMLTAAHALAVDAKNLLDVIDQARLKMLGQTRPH
Sequence of Mitogen-activated protein kinase kinase kinase 13 (Homo sapiens) (O43283 whole entry): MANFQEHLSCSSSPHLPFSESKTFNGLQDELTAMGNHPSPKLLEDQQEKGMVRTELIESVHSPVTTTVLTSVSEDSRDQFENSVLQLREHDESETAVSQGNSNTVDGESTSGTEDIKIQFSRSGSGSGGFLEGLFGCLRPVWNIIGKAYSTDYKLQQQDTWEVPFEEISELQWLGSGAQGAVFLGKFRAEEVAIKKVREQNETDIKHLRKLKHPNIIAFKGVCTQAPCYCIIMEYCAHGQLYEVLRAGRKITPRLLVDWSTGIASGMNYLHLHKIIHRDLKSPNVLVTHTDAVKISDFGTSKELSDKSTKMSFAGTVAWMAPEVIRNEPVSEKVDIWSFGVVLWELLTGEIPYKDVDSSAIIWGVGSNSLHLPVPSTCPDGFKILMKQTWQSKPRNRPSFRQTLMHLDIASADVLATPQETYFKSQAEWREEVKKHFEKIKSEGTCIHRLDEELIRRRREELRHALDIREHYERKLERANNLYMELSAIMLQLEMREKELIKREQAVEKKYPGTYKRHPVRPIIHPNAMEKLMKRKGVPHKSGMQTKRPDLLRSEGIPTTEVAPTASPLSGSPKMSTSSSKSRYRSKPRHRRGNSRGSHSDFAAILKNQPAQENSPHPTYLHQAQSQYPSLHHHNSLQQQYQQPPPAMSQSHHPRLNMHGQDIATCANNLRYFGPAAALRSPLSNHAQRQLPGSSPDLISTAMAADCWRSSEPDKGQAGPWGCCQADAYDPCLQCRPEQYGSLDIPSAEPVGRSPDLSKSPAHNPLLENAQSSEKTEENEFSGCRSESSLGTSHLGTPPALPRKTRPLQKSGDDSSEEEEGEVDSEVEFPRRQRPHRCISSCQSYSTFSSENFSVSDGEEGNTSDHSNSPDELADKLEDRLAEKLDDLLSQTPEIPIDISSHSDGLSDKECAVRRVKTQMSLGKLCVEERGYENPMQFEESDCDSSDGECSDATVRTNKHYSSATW
Sequence of Interleukin-1 receptor-associated kinase 1 (Homo sapiens) (P51617 whole entry, looked up): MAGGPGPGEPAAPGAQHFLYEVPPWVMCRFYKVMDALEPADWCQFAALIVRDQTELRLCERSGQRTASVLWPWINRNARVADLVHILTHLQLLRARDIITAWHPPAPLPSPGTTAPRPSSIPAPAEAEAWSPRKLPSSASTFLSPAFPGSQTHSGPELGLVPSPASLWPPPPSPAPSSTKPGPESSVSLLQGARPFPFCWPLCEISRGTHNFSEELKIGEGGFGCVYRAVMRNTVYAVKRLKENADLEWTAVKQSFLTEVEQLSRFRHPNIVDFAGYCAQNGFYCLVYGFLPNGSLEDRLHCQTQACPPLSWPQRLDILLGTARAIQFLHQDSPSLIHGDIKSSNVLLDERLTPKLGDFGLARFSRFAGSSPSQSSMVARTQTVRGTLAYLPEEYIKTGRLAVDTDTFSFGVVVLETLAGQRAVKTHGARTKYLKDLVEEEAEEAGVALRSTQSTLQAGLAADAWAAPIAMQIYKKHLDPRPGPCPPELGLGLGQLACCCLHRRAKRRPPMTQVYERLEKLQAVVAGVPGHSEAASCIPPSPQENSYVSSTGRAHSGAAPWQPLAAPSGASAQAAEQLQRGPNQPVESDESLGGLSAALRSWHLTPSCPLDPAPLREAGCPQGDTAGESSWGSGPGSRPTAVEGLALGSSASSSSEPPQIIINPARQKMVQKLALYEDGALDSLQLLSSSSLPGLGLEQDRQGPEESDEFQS
Sequence of Serine/threonine-protein kinase Nek7 (Homo sapiens) (Q8TDX7 whole entry, looked up): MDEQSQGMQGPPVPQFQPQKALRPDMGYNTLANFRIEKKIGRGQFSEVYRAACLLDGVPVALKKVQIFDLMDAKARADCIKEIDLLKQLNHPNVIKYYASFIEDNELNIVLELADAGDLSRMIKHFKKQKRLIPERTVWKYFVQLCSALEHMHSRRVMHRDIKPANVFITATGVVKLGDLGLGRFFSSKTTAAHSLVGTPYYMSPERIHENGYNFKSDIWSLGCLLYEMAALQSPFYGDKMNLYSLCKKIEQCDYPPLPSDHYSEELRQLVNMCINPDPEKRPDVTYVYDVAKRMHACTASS

CCS(=O)(=O)c1cc2cc(C[C@@](O)(CC(C)(C)c3ccc(F)cc3C(N)=O)C(F)(F)F)[nH]c2cn1
residual activity [1]: 56% | residual activity [2]: 100% | residual activity [3]: 69% | residual activity [4]: 80% | residual activity [5]: 100% | residual activity [6]: 100% | residual activity [7]: 83% | residual activity [8]: 100% | residual activity [9]: 76% | residual activity [10]: 82% | inhibition [11]: -5.76% | residual activity [12]: 81% | residual activity [13]: 83% | residual activity [14]: 99% | residual activity [15]: 100% | inhibition [16]: 28.3% | residual activity [17]: 100% | residual activity [18]: 81% | residual activity [19]: 80% | residual activity [20]: 100% | residual activity [21]: 79% | residual activity [22]: 100% | residual activity [23]: 38% | residual activity [24]: 80% | inhibition [25]: 0.63% | residual activity [26]: 84% | residual activity [27]: 83% | residual activity [28]: 100% | residual activity [29]: 100% | residual activity [30]: 90% | residual activity [31]: 100% | residual activity [32]: 99% | residual activity [33]: 100% | residual activity [34]: 77% | residual activity [35]: 90% | residual activity [36]: 100% | residual activity [37]: 100% | residual activity [38]: 78% | inhibition [39]: 6.19% | residual activity [40]: 100% | residual activity [41]: 77% | residual activity [42]: 100% | residual activity [43]: 95% | residual activity [44]: 86% | residual activity [45]: 84%

CCS(=O)(=O)c1cc2cc(C[C@](O)(CC(C)(C)c3ccc(F)cc3C(N)=O)C(F)(F)F)[nH]c2cn1
residual activity [1]: 100% | residual activity [2]: 97% | residual activity [3]: 100% | residual activity [4]: 100% | residual activity [5]: 89% | residual activity [6]: 98% | residual activity [7]: 99% | residual activity [8]: 100% | residual activity [9]: 74% | residual activity [10]: 90% | inhibition [11]: -4.94% | residual activity [12]: 100% | residual activity [13]: 83% | residual activity [14]: 88% | residual activity [15]: 100% | inhibition [16]: 23.4% | residual activity [17]: 90% | residual activity [18]: 85% | residual activity [19]: 99% | residual activity [20]: 100% | residual activity [21]: 93% | residual activity [22]: 100% | residual activity [23]: 45% | residual activity [24]: 100% | inhibition [25]: 13% | residual activity [26]: 80% | residual activity [27]: 100% | residual activity [28]: 67% | residual activity [29]: 100% | residual activity [30]: 100% | residual activity [31]: 100% | residual activity [32]: 100% | residual activity [33]: 93% | residual activity [34]: 100% | residual activity [35]: 100% | residual activity [36]: 100% | residual activity [37]: 100% | residual activity [38]: 100% | inhibition [39]: 4.27% | residual activity [40]: 97% | residual activity [41]: 100% | residual activity [42]: 100% | residual activity [43]: 100% | residual activity [44]: 94% | residual activity [45]: 100%
